Source: patent US11672251B2, “Herbicidally active pyridyl-/pyrimidyl-pyrimidine derivatives” (Syngenta Participations AG, priority 2017, dated 2023)

Columns and labels:
Format in all cases: in vivo
[1] = test system: Abutilon theophrasti (ABUTH); experiment: B1 pre-emergence herbicidal activity; conditions: Test 1a, rate 1000 g/ha, evaluated after 13 days, scale 5=total damage to plant, 0=no damage to plant
Description: (§1) Seeds of a variety of test species were sown in standard soil in pots: Triticum aestivium (TRZAW), Avena fatua (AVEFA), Alopecurus myosuroides (ALOMY), Echinochloa crus-galli (ECHCG), Lolium perenne (LOLPE), Zea Mays (ZEAMX), Abutilon theophrasti (ABUTH), Amaranthus retroflexus (AMARE) and Setaria faberi (SETFA). After cultivation for one day (pre-emergence) under controlled conditions in a glasshouse (at 24/16° C., day/night; 14 hours light; 65% humidity), the plants were sprayed with an aqueous spray solution derived from the formulation of the technical active ingredient in acetone/water (50:50) solution containing 0.5% Tween 20 (polyoxyethelyene sorbitan monolaurate, CAS RN 9005-64-5). The test plants were then grown in a glasshouse under controlled conditions (at 24/16° C., day/night; 14 hours light; 65% humidity) and watered twice daily. After 13 days, the test was evaluated (5=total damage to plant; 0=no damage to plant).

[2] = test system: Amaranthus retroflexus (AMARE); experiment: B1 pre-emergence herbicidal activity; conditions: Test 1a, rate 1000 g/ha, evaluated after 13 days, scale 5=total damage to plant, 0=no damage to plant
Description: as §1

[3] = test system: Echinochloa crus-galli (ECHCG); experiment: B1 pre-emergence herbicidal activity; conditions: rate 1000 g/ha, evaluated after 13 days, scale 5=total damage to plant, 0=no damage to plant
Description: as §1

Lolium perenne (LOLPE) [4] = experiment: B1 pre-emergence herbicidal activity; conditions: rate 1000 g/ha, evaluated after 13 days, scale 5=total damage to plant, 0=no damage to plant
Description: as §1

Setaria faberi (SETFA) [5] = experiment: B1 pre-emergence herbicidal activity; conditions: rate 1000 g/ha, evaluated after 13 days, scale 5=total damage to plant, 0=no damage to plant
Description: as §1

Zea Mays (ZEAMX) [6] = experiment: B1 pre-emergence herbicidal activity; conditions: Test 1a, rate 1000 g/ha, evaluated after 13 days, scale 5=total damage to plant, 0=no damage to plant
Description: as §1

[7] = test system: Abutilon theophrasti (ABUTH); experiment: B2 post-emergence herbicidal activity; conditions: Test B2a; post-emergence (sprayed after 8 days cultivation); rate 1000 g/ha; evaluated after 13 days; scale 5=total damage to plant, 0=no damage to plant
Description: (§2) Seeds of a variety of test species were sown in standard soil in pots: Triticum aestivium (TRZAW), Avena fatua (AVEFA), Alopecurus myosuroides (ALOMY), Echinochloa crus-galli (ECHCG), Lolium perenne (LOLPE), Zea Mays (ZEAMX), Abutilon theophrasti (ABUTH), Amaranthus retroflexus (AMARE) and Setaria faberi (SETFA). After 8 days cultivation (post-emergence) under controlled conditions in a glasshouse (at 24/16° C., day/night; 14 hours light; 65% humidity), the plants were sprayed with an aqueous spray solution derived from the formulation of the technical active ingredient in acetone/water (50:50) solution containing 0.5% Tween 20 (polyoxyethelyene sorbitan monolaurate, CAS RN 9005-64-5). The test plants were then grown in a glasshouse under controlled conditions (at 24/16° C., day/night; 14 hours light; 65% humidity) and watered twice daily. After 13 days, the test was evaluated (5=total damage to plant; 0=no damage to plant).

[8] = test system: Amaranthus retroflexus (AMARE); experiment: B2 post-emergence herbicidal activity; conditions: Test B2a; post-emergence (sprayed after 8 days cultivation); rate 1000 g/ha; evaluated after 13 days; scale 5=total damage to plant, 0=no damage to plant
Description: as §2

[9] = test system: Echinochloa crus-galli (ECHCG); experiment: B2 post-emergence herbicidal activity; conditions: post-emergence (sprayed after 8 days cultivation), rate 1000 g/ha, evaluated after 13 days, scale 5=total damage to plant, 0=no damage to plant
Description: as §2

Lolium perenne (LOLPE) [10] = experiment: B2 post-emergence herbicidal activity; conditions: post-emergence (sprayed after 8 days cultivation), rate 1000 g/ha, evaluated after 13 days, scale 5=total damage to plant, 0=no damage to plant
Description: as §2

Setaria faberi (SETFA) [11] = experiment: B2 post-emergence herbicidal activity; conditions: post-emergence (sprayed after 8 days cultivation), rate 1000 g/ha, evaluated after 13 days, scale 5=total damage to plant, 0=no damage to plant
Description: as §2

Zea Mays (ZEAMX) [12] = experiment: B2 post-emergence herbicidal activity; conditions: Test B2a; post-emergence (sprayed after 8 days cultivation); rate 1000 g/ha; evaluated after 13 days; scale 5=total damage to plant, 0=no damage to plant
Description: as §2

[13] = test system: Alopecurus myosuroides (ALOMY); experiment: B1 pre-emergence herbicidal activity; conditions: Test 1b, rate 1000 g/ha, evaluated after 13 days, scale 5=total damage to plant, 0=no damage to plant
Description: as §1

Avena fatua (AVEFA) [14] = experiment: B1 pre-emergence herbicidal activity; conditions: Test 1b, rate 1000 g/ha, evaluated after 13 days, scale 5=total damage to plant, 0=no damage to plant
Description: as §1

[15] = test system: Triticum aestivium (TRZAW); experiment: B1 pre-emergence herbicidal activity; conditions: Test 1b, rate 1000 g/ha, evaluated after 13 days, scale 5=total damage to plant, 0=no damage to plant
Description: as §1

[16] = test system: Alopecurus myosuroides (ALOMY); experiment: B2 post-emergence herbicidal activity; conditions: Test B2b; post-emergence (sprayed after 8 days cultivation); rate 1000 g/ha; evaluated after 13 days; scale 5=total damage to plant, 0=no damage to plant
Description: as §2

Avena fatua (AVEFA) [17] = experiment: B2 post-emergence herbicidal activity; conditions: Test B2b; post-emergence (sprayed after 8 days cultivation); rate 1000 g/ha; evaluated after 13 days; scale 5=total damage to plant, 0=no damage to plant
Description: as §2

[18] = test system: Triticum aestivium (TRZAW); experiment: B2 post-emergence herbicidal activity; conditions: Test B2b; post-emergence (sprayed after 8 days cultivation); rate 1000 g/ha; evaluated after 13 days; scale 5=total damage to plant, 0=no damage to plant
Description: as §2

Structure (SMILES) | Control after pre-emergence application, damage score: ABUTH [1] | Control after pre-emergence application, damage score: AMARE [2] | Control after pre-emergence application, damage score: ECHCG ([3]; Test 1a) | Control after pre-emergence application, damage score: LOLPE (Lolium perenne (LOLPE) [4]; Test 1a) | Control after pre-emergence application, damage score: SETFA (Setaria faberi (SETFA) [5]; Test 1a) | Control after pre-emergence application, damage score: ZEAMX (Zea Mays (ZEAMX) [6]) | Control after post-emergence application, damage score: ABUTH [7] | Control after post-emergence application, damage score: AMARE [8] | Control after post-emergence application, damage score: ECHCG ([9]; Test B2a) | Control after post-emergence application, damage score: LOLPE (Lolium perenne (LOLPE) [10]; Test B2a) | Control after post-emergence application, damage score: SETFA (Setaria faberi (SETFA) [11]; Test B2a) | Control after post-emergence application, damage score: ZEAMX (Zea Mays (ZEAMX) [12]) | Control after pre-emergence application, damage score: ALOMY [13] | Control after pre-emergence application, damage score: AVEFA (Avena fatua (AVEFA) [14]) | Control after pre-emergence application, damage score: ECHCG ([3]; Test 1b) | Control after pre-emergence application, damage score: LOLPE (Lolium perenne (LOLPE) [4]; Test 1b) | Control after pre-emergence application, damage score: SETFA (Setaria faberi (SETFA) [5]; Test 1b) | Control after pre-emergence application, damage score: TRAZW [15] | Control after post-emergence application, damage score: ALOMY [16] | Control after post-emergence application, damage score: AVEFA (Avena fatua (AVEFA) [17]) | other results
CNc1cnc(-c2cncc(F)c2)nc1C [Compound D1, 2-(5-fluoro-3-pyridyl)-N,4-dimethyl-pyrimidin-5-amine] | 1 | 1 | 1 | 0 | 3 | 0 | 0 | 0 | 2 | 1 | 3 | 1 |  |  |  |  |  |  |  |  | 
Cc1nc(-c2cncc(F)c2)ncc1N [Compound D2, 2-(5-fluoro-3-pyridyl)-4-methyl-pyrimidin-5-amine] | 1 | 1 | 1 | 0 | 2 | 0 | 1 | 1 | 2 | 1 | 3 | 1 |  |  |  |  |  |  |  |  | 
CCCNc1cnc(-c2cncc(F)c2)nc1C(F)(F)F [Compound D13, 2-(5-fluoro-3-pyridyl)-N-propyl-4-(trifluoromethyl)pyrimidin-5-amine] |  |  |  |  |  |  |  |  |  |  |  |  | 0 | 0 | 1 | 1 | 2 | 1 | 0 | 3 | Control after post-emergence application, damage score: ECHCG ([9]; Test B2b): 4; Control after post-emergence application, damage score: LOLPE (Lolium perenne (LOLPE) [10]; Test B2b): 1; Control after post-emergence application, damage score: SETFA (Setaria faberi (SETFA) [11]; Test B2b): 4; Control after post-emergence application, damage score: TRAZW [18]: 0
CCCN(CCC)c1cnc(-c2cncc(F)c2)nc1C(F)(F)F [Compound D14, 2-(5-fluoro-3-pyridyl)-N,N-dipropyl-4-(trifluoromethyl)pyrimidin-5-amine] |  |  |  |  |  |  |  |  |  |  |  |  | 1 | 0 | 2 | 1 | 2 | 1 | 1 | 3 | Control after post-emergence application, damage score: ECHCG ([9]; Test B2b): 4; Control after post-emergence application, damage score: LOLPE (Lolium perenne (LOLPE) [10]; Test B2b): 2; Control after post-emergence application, damage score: SETFA (Setaria faberi (SETFA) [11]; Test B2b): 4; Control after post-emergence application, damage score: TRAZW [18]: 0
